Laboratory results: PMC8279484 (Journal of Medicinal Chemistry, 2021)
pIC50: −log10 of the molar value.

How the values were obtained:
IL-6 = assay: LPS-induced IL-6 release from THP-1 Lucia monocytes (multiplex electrochemiluminescence); assay type: cell-based, human; conditions: for pIC50: Homo sapiens, THP-1; for pIC50 / Imax, IL-6 release: LPS 50 ng/mL, 24 h; for Imax, IL-6 release: concentration–response
Description: (§1) LXA41 and all of the tested sLXms were dissolved in ethanol and further diluted in a culture medium (final ethanol concentration 0.1%; equivalent concentrations were used as the vehicle control). Prior to in vitro experiments, THP-1-Lucia NF-κB cells were harvested and plated at 1 × 10^5 cells/well on 96-well plates and left to settle in the incubator at 37 °C, 95% humidity, and 5% CO2, in 0.1% FBS-containing media, pretreated for 30 min with increasing doses of LXA41, sLXms (from 10^–12 to 10^–6 M), or appropriate controls, followed by stimulation with 50 ng/mL LPS for 24 h. Untreated (Unt) or vehicle-treated (Veh) cells were used as negative controls; 1 pM (1R)-5, the (1R)-epimer of the benzo-mimetic, was used as a positive control for any aromatic mimetic; and, finally, we compared the observed effects to the conventional glucocorticoid dexamethasone (Dex) treatment, at 1 μM.
(§2) After 24 h of exposure to LXA41, sLXms, or vehicle, followed by LPS stimulation (50 ng/mL), as described above, THP-1-Lucia NF-κB-cell supernatants were collected and cleared by centrifugation. Concentrations of IFN-γ, IL-1β, IL-6, IL-8, IL-10, IL-12p70, and TNF-α in culture supernatants were assessed by electro-chemi-luminescent detection, using a commercially available human 96-well plate “multiplex” (several analytes in the same well) kit for tissue culture samples, according to the manufacturers’ guidelines.
(§3) The “coding” of the heat-map indicates the arbitrary criteria to assign points to each single PD component (efficacy = Imax or Emax; potency = IC50 or EC50; slope = HS) to generate a final (aggregate) relative PD score. If a single PD component was greater than the reference level (x > 1), then the single-component relative score was arbitrarily set to +1 (light green) or +2 (dark green). If a single PD component was equal to the reference level (x = 1), then the single-component relative score was arbitrarily set to 0 (gray). If a single PD component was smaller than the reference level (x < 1), then the single-component relative score was arbitrarily set to −1 (light red) or −2 (dark red). If the curve of a single PD component was best fitting to a flat line (x = 0), then the single-component relative score was arbitrarily set to −4 (purple) (Table S1).

THP-1 LUCIA monocytes = assay: In vitro safety study: Safety index (Si), activity versus toxicity; assay type: cell-based, human; conditions: for pIC50: Homo sapiens, THP-1, highest IC50 among the LPS-challenged assays (NF-κB activity, cytokine, LDH release), read-out: Extrinsic Activity hIC50; for Safety Index TC50/IC50: ratio of intrinsic TC50 to extrinsic hIC50
Description: A postanalysis “safety study” was conducted on all QNX-sLXms. For each tested compound, we calculated an in vitro “Safety index” (Si) by relating its “anti-inflammatory half-maximal activity” (the highest dose among the IC50 of the extrinsic LPS-challenged phenotype: NF-κB activity, proinflammatory cytokine, and LDH release) to its intrinsic “toxicity” (expressed as the relative half-maximal LDH-associated cytotoxicity). The generated Si is potentially predictive of a translational “therapeutic” range: the higher the Si, the safer the molecule is. As summarized in Table S4, Si values from all tested compounds fall in a broad range (7–50).

C57bl/6 mice = assay: Murine carrageenan-induced paw edema; assay type: in vivo, mouse; design: Paw swelling Index: Mean: unit not given here; conditions: for % relative to carageenan-induced level: Veh = 100; for % relative to carageenan-induced level / % reduction relative to carageenan-induced level: (R)-6, (R)-17 2 μg/kg, Naproxen 50 mg/kg p.o.; for effect on inflammatory response (paw swelling), in words / Paw swelling Index: Mean: (R)-6, (R)-17 2 μg/kg ip, Naproxen 50 mg/kg po; for Paw swelling Index: Mean: n = 3
Description: Then, 50 μL of 1% carrageenan was injected with an equivalent volume of saline injected into the contralateral paw. Inflammation was presented as the difference in paw thickness over time using gauge (POCO 2T; Kroeplin, GmbH, Surrey, U.K.). Data are presented as mean ± SEM, n = 3 mice/treatment group.

wild-type HEK-293 cells = assay: Intracellular calcium flux in wild-type HEK-293 (specificity control); assay type: cell-based, human
Description: To explore the mechanism of action through which the sLXm lead compound exerts the effects seen here, its interaction with the ALX/FPR2 receptor was investigated and agonist-induced intracellular calcium transients were measured using an engineered cell line stably overexpressing the ALX/FPR2 receptor and the Gαq subunit coupled to it (Figure S6). Wild-type HEK cells were used as controls, to verify the specificity of the agonism toward ALX/FPR2, as previously reported.[36] Briefly, prior to cell plating, sterile 96-well plates (black-sided with optically clear glass flat bottoms) were PDL-coated overnight. Subsequently, 2 × 10^5 wild-type cells and overexpressed cells/well were cultured for 18 h in DMEM complete media (containing Ca^2+ and Mg^2+) to facilitate adherence prior to labeling with Fluo-4 dye. After 1 h of incubation at 37 °C with Fluo-4, cells were gently washed twice and placed in 100% Hanks’ balanced salt solution (HBSS; 37 °C) before reading the fluorescence (485/535 nm), using a spectrophotometer conjugated with an injection system (Clariostar BMG LABTECH plate reader), allowing addition to the cells of controls (1 mM ATP, a GPCR purinergic agonist, 2 nM Wp, a synthetic ALX/FPR2 agonist) or experimental treatments [10 pM, 1 nM, and 100 nM LXA41 or (R)-6].

IL-8 = assay: LPS-induced IL-8 release from THP-1 Lucia monocytes (multiplex electrochemiluminescence); assay type: cell-based, human; conditions: Dex 1 μM; 1 1 nM; (R)-6 concentration not given
Description: as §1, §2

IL-1β = assay: LPS-induced IL-1β release from THP-1 Lucia monocytes (multiplex electrochemiluminescence); assay type: cell-based, human; conditions: for pIC50: Homo sapiens, THP-1
Description: as §1, §2, §3

Row | pIC50 (IL-6) | pIC50 (IL-1β; LPS 50 ng/mL, 24 h) | Compound | Imax, IL-6 release (IL-6) [%] | pIC50 (THP-1 LUCIA monocytes) | Safety Index TC50/IC50 (THP-1 LUCIA monocytes) | % relative to carageenan-induced level (C57bl/6 mice; 4h) [%] | % relative to carageenan-induced level (C57bl/6 mice; 8h) [%] | % relative to carageenan-induced level (C57bl/6 mice; 24h) [%] | % relative to carageenan-induced level (C57bl/6 mice; 48h) [%] | % reduction relative to carageenan-induced level (C57bl/6 mice; 72h) [%] | % relative to carageenan-induced level (C57bl/6 mice; 72h) [%] | effect on inflammatory response (paw swelling), in words (C57bl/6 mice) | Paw swelling Index: Mean (C57bl/6 mice; Time 4h, 1% carrageenan) | Paw swelling Index: Mean (C57bl/6 mice; Time 8h) | Paw swelling Index: Mean (C57bl/6 mice; Time 24h) | Paw swelling Index: Mean (C57bl/6 mice; Time 48h) | Paw swelling Index: Mean (C57bl/6 mice; Time 72h) | Ca^2+ mobilization in wild-type HEK-293 cells (wild-type HEK-293 cells) | enhancement of LPS-induced secretion of IL-8 (IL-8) [fold] | further results
1 | 12.00 | 12.00 | CCCCC[C@@H](O)c1nc2ccccc2nc1/C=C/[C@@H](O)[C@@H](O)CCCC(=O)OC [(R)-6, Methyl (5S,6R,E)-5,6-Dihydroxy-8-(3-((R)-1-hydroxyhexyl)quinoxalin-2-yl)oct-7-enoate] | 84 ± 2 | 10.60 | 20 | 116 | 63 | 72 | 53 | 10 | 110 | significantly reduced | 0.08 | 0.25 | 0.63 | 0.21 | 0.11 | no calcium release was induced | 2.5 | PD score, IL-6 release (IL-6; relative to LXA4 (1)): −2; rel. slope, IL-6 release (IL-6; relative to LXA4 (1)): 0.7; ΔΤR50: reduction of time taken to reduce the inflammatory response to 50% max (C57bl/6 mice; (R)-6 2 μg/kg ip, relative to vehicle-treated animals): 6 h; Imax, IL-1β release (IL-1β; concentration–response, LPS 50 ng/mL, 24 h): 73 ± 2%; PD score, IL-1β release (IL-1β; relative to LXA4 (1)): −2; rel. slope, IL-1β release (IL-1β; relative to LXA4 (1)): −0.03
2 | – | – | CCCCC[C@@H](O)c1nc2ccccc2nc1/C=C/[C@H]1OC(C)(C)O[C@H]1CCCC(=O)OC [(R)-17, Methyl 4-((4S,5R)-5-((E)-2-(3-((R)-1-Hydroxyhexyl)quinoxalin-2-yl)vinyl)-2,2-dimethyl-1,3-dioxolan-4-yl)butanoate] | – | 11.00 | 10 | 103 | 84 | 92 | 149 | 120 | 220 | no effect | 0.07 | 0.33 | 0.80 | 0.60 | 0.22 | – | – | % reduction relative to carageenan-induced level (C57bl/6 mice; 4h): 3%; % reduction relative to carageenan-induced level (C57bl/6 mice; 24h): -8%; % reduction relative to carageenan-induced level (C57bl/6 mice; 48h): 49%
3 | – | – | CCCCCCC[C@H](O)c1nc2ccccc2nc1/C=C/[C@@H](O)[C@@H](O)CCCC(=O)OC [(S)-8, Methyl (5S,6R,E)-5,6-Dihydroxy-8-(3-((S)-1-hydroxyoctyl)quinoxalin-2-yl)oct-7-enoate] | – | 11.00 | 10 | – | – | – | – | – | – | – | – | – | – | – | – | – | – | –
4 | 12.00 | 12.00 | CCCCC[C@H](O)/C=C/C=C\C=C\C=C\[C@@H](O)[C@@H](O)CCCC(=O)O [Compound 1, LXA4] | 99 ± 1 | – | – | – | – | – | – | – | – | – | – | – | – | – | – | without effect | 2.5 | –
